Reference: patent US11629146B2, “Substituted [1,2,4]triazolo[4,3-a]pyrazines as modulators of sodium channel activity” (Praxis Precision Medicines, Inc., priority 2016, dated 2023)
Where two headings read alike, the source gives them in different places.

Key:
[1] = molecular target: human NaV1.6 (hNaV1.6) (Homo sapiens (Human), UniProt Q9UQD0); assay: INaL inhibition at hNaV1.6, PatchXpress electrophysiology; format: cell-based
Description: Functional characterization of exemplary compounds to modulate INaL expressed by the Nay 1.6 voltage-gated sodium channel was accomplished using the PatchXpress™ high throughput electrophysiology platform (Molecular Devices, Sunnyvale, Calif.). HEK-293 cells expressing recombinant, human NaV1.6 (hNaV1.6) were grown in DMEM/high-glucose Dulbecco's modified, 10% FBS, 2 mM sodium pyruvate, 10 mM HEPES and 400 μg/mL G418. Cells were grown to 50%-80% confluency prior to harvesting. […] The onboard liquid handling facility of the PatchXpress was used for dispensing cells and applying test compounds. Nay late currents were evoked by the application of 300 nM ATX-II. […] INaL amplitude and stability were determined by analyzing the mean current amplitude over the final 20 ms of the test pulse. […] Percent steady-state inhibition of INaL was calculated as: [(INaL_compound)/(INaL_control)]*100, where INaL_compound and INaL_control represent INaL recorded in the presence or absence of compound, respectively.

[2] = molecular target: CYP1A2 (Homo sapiens (Human), UniProt P05177); assay: CYP1A2 inhibition in human liver microsomes; format: in vitro ADME; settings: pooled human liver microsomes, marker substrate Phenacetin
Chain of CYP1A2 (P05177 whole entry): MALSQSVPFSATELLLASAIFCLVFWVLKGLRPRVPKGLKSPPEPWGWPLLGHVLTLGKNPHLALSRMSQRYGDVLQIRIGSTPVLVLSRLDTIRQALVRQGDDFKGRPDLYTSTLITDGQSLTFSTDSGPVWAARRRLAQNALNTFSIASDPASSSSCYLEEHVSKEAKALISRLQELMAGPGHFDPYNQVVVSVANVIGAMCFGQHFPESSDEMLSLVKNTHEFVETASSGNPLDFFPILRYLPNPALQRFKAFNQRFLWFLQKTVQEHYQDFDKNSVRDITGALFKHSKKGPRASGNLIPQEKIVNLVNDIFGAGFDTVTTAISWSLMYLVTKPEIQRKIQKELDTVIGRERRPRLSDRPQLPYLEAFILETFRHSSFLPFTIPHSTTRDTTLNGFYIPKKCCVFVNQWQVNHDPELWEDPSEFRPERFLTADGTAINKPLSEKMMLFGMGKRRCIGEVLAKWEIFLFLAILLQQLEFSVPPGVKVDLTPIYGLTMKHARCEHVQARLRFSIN
Description: The specific marker metabolites are measured with LC/MS/MS. The remaining enzymatic activities and inhibitory potency IC50 are determined. Microsomes are removed out of the −80° C. freezer to thaw on ice and 20 μL of the substrates solution added to the corresponding wells. […] Then 158 μL of the HLM working solution was added to all wells of the incubation plate. The plate was pre-warmed for about 10 min using a 37° C. water bath. Then 20 μL of the NADPH cofactor solution was added to all incubation wells, mixed and incubated for 10 minutes at 37° C. water bath. The reaction is terminated by adding 400 μL cold stop solution (200 ng/mL Tolbutamide and 200 ng/mL Labetalol in ACN). […] Finally 200 μL of the supernatant was transferred to 100 μL HPLC water, shaken for 10 min and analyzed by LC/MS/MS. […] Equation for three parameters logistic sigmoidal curve: […]

[3] = PK rat clearance experiment; format: in vivo; settings: male Sprague-Dawley rats, single intravenous bolus 0.5 mg/kg, plasma
Description: The IV dosing solution was prepared freshly on the dosing day. Test article (0.5 mg/kg) was prepared in a vehicle, for example, consisting of 5% DMSO/5% solutol/90% water. The concentrations of test article in all dosing solutions were determined by HPLC/UV. Three male Sprague-Dawley rats were used in this study. The animals were confirmed healthy before being assigned to the study. Each animal was given a unique identification number which was marked on the tail or the ear, and written on the cage card. All animals were fasted overnight before dosing and the food was returned at 4 hours post dosing. Water was provided to all animals ad libitum during the fasting period. Animals were weighed prior to dose administration on the day of dosing for calculating the actual dose volume. The body weights were in the range from 212 g to 223 g for males. All animals received test article by single intravenous bolus administration at 0.5 mg/kg. Approximately 0.2 mL blood was collected at each time point via jugular vein from each study animal. […] All blood samples were transferred into pre-labeled plastic micro centrifuge tubes and mixed with the pre-loaded anti-coagulant K2EDTA (5 μL, 0.5 M). Plasma samples were then prepared by centrifuging the blood samples. All plasma samples were then quickly frozen over dry ice and kept at −60° C. or lower until LC/MS/MS analysis. The concentrations of test article in plasma were determined by using a quantitative bioanalytical LC/MS/MS method. The lower limit of quantitation (LLOQ) for test article in plasma was 1 ng/mL, and the upper limit of quantitation (ULOQ) in plasma was 3000 ng/mL. The plasma concentration of test article in rats was subjected to a non compartmental pharmacokinetic analysis by using the Phoenix WinNonlin software (version 6.3, Pharsight, Mountain View, Calif.). The linear/log trapezoidal rule was applied in obtaining the PK parameters.

[4] = molecular target: human NaV1.5 late sodium current (INaL) (Homo sapiens (Human), UniProt Q14524); assay: INaL inhibition at hNaV1.5, PatchXpress electrophysiology; format: cell-based; settings: HEK-293 cells expressing recombinant human NaV1.5, HEK-293 cells expressing hNaV1.5, late current evoked by 300 nM ATX-II, read-out: INaL v1.5 (1 μM, % Inhibition)
Chain of human NaV1.5 late sodium current (INaL) (Q14524 whole entry): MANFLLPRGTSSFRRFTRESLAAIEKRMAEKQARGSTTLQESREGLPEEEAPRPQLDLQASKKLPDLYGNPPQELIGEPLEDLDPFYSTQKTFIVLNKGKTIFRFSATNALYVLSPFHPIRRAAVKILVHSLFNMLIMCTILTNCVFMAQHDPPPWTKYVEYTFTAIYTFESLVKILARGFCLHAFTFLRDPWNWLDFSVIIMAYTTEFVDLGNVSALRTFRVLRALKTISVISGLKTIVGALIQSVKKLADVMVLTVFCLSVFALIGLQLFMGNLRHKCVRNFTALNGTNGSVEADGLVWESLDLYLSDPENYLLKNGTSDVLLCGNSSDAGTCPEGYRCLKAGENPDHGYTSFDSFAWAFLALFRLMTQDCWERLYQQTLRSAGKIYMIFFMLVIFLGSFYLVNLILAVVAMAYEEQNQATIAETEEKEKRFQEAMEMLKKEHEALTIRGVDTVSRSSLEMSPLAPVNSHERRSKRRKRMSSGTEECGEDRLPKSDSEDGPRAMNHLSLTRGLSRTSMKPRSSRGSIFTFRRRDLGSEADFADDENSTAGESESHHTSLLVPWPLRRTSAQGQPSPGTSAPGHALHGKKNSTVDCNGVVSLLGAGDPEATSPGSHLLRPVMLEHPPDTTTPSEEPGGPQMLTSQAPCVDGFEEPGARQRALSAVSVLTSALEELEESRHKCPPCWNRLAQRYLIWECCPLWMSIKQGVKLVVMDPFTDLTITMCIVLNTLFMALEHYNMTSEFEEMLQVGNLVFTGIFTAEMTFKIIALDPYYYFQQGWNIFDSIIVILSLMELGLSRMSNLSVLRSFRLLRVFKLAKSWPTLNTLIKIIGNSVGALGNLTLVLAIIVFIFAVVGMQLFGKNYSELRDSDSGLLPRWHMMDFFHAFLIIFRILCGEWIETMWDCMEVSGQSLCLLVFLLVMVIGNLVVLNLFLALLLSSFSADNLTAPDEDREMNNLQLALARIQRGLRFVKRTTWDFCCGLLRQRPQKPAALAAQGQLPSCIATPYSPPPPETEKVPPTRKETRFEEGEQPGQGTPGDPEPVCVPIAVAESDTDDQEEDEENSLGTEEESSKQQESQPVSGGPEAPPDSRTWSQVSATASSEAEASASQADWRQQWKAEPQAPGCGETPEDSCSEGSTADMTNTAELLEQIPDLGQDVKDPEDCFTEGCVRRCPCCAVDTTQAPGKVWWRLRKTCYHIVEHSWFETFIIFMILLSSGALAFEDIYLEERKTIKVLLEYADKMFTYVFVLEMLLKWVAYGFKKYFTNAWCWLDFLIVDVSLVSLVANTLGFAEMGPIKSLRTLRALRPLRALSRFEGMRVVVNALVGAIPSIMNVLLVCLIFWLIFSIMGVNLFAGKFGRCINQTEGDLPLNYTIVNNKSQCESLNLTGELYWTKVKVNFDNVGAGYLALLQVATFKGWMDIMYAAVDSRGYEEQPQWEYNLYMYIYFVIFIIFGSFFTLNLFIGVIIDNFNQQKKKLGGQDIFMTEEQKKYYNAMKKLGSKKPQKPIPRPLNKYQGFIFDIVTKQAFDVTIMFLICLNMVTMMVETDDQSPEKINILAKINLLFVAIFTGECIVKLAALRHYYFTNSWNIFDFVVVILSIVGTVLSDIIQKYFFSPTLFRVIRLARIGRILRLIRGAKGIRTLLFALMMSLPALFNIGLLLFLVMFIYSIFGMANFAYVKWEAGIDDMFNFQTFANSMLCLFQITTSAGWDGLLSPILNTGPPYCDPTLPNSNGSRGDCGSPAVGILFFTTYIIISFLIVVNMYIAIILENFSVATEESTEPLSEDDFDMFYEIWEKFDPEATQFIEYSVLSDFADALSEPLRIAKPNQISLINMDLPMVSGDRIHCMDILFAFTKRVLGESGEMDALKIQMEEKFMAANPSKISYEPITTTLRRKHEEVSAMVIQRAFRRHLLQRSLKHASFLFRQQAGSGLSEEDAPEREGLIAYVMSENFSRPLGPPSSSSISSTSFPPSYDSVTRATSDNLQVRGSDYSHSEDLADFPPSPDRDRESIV

[5] = HEK293, 1 μM, HEK-293 cells expressing hNaV1.6, late current evoked by 300 nM ATX-II, read-out: INaL v1.6 (1 μM, % Inhibition)
[6] = HEK293, read-out: INaL v1.6 (1 μM, % Inhibition)

Chain of human NaV1.6 (hNaV1.6) (Q9UQD0 whole entry): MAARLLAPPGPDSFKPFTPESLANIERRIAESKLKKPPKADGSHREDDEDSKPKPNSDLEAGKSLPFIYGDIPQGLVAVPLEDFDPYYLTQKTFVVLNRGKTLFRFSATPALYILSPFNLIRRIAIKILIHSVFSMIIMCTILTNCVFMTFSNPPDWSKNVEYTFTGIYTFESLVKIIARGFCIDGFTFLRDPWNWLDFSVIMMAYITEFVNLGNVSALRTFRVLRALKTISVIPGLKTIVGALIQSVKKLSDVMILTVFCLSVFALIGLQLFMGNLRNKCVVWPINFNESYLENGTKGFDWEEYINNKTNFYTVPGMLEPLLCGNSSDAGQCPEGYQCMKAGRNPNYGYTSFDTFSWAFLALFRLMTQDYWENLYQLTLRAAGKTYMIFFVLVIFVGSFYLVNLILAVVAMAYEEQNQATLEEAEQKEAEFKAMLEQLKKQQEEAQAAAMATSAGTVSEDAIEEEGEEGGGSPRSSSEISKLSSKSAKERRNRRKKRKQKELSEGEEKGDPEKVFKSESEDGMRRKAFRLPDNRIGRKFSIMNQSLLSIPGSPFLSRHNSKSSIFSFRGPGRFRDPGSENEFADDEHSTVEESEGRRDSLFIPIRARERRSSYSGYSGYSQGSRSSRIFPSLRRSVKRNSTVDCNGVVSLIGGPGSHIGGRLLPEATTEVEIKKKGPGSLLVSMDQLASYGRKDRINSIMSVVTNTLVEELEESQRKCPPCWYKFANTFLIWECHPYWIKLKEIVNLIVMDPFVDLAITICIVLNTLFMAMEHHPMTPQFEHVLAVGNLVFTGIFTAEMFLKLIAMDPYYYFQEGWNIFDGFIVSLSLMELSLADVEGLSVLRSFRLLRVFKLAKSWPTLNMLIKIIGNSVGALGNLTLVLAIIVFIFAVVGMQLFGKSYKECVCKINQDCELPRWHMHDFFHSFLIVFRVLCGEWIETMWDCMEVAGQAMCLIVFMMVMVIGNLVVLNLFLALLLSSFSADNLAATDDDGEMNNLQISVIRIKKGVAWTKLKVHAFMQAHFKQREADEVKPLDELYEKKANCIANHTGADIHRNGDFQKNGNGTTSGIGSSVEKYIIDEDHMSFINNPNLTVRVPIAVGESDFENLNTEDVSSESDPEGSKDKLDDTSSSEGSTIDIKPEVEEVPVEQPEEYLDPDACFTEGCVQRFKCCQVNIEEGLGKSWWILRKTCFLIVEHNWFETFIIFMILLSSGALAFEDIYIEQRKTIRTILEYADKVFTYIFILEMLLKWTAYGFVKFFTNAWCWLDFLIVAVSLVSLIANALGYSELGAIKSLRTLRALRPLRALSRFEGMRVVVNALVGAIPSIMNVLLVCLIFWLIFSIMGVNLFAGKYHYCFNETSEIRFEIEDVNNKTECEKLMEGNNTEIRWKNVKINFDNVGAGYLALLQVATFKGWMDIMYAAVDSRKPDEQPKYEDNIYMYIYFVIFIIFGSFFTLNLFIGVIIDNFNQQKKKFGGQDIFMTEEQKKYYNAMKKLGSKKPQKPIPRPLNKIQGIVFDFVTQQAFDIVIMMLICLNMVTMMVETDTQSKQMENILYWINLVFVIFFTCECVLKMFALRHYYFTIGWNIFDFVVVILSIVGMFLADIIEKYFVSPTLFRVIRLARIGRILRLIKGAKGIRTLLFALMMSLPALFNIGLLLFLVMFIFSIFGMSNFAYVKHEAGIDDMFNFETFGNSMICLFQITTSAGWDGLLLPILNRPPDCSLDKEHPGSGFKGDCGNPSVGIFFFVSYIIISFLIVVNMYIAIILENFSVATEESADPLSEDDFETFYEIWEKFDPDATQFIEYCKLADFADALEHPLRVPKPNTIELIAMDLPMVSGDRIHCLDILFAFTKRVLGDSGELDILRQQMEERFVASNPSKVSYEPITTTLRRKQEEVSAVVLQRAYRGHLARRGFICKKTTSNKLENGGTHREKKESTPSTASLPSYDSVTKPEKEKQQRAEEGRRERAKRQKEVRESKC

| SMILES | inhibition at 1 µM [1, 5] [%] | IC50 [2] [µM] | clearance [3] [mL/min/kg] | half-life [3] [min] | inhibition at 1 µM [1, 6] [%] | inhibition at 1 µM [4] [%] |
| --- | --- | --- | --- | --- | --- | --- |
| FC(F)(F)Oc1ccc(-c2ccc3nnc(C[C@H]4CCCCO4)n3n2)cc1 (single isomer, unassigned) [Compound 42] | 30 to 70 | > 30 |  |  |  |  |
| FC(F)(F)Oc1ccc(-c2ccc3nnc(C[C@@H]4CCCCO4)n3n2)cc1 (single isomer, unassigned) [Compound 43] | 30 to 70 | > 30 |  |  |  |  |
| FC(F)(F)c1nnc2ccc(-c3ccc([C@@H]4CC4(F)F)cc3)nn12 (single isomer, unassigned) [Compound 122] |  | < 1 |  |  | > 70 |  |
| FC(F)(F)c1ccc(-c2ccc3nnc(C(F)(F)F)n3n2)cc1 [Compound 1] | > 70 |  |  |  |  | > 50 |
| Cc1cc(-c2ccc3nnc(C(F)(F)F)n3n2)ccc1OC(F)(F)F [Compound 2] | > 70 |  |  |  |  | > 50 |
| FC(F)(F)COc1ccc(-c2ccc3nnc(CC(F)(F)F)n3n2)cn1 [Compound 7] | 30 to 70 |  |  |  |  | < 50 |
| FC(F)(F)COc1ccc(-c2ccc3nnc(C4CC4)n3n2)cn1 [Compound 8] | 30 to 70 |  |  |  |  | > 50 |
| FC(F)(F)COc1ccc(-c2ccc3nnc(C(F)(F)C(F)(F)F)n3n2)cn1 [Compound 9] | 30 to 70 |  |  |  |  | > 50 |
| FC(F)(F)Oc1ccc(-c2ccc3nnc(CC4CCOC4)n3n2)cc1 (stereo not drawn) [Compound 10] | 30 to 70 |  |  |  |  | < 50 |
| FC(F)(F)Oc1ccc(-c2ccc3nnc(CC4CCCO4)n3n2)cc1 (stereo not drawn) [Compound 11] | < 30 |  |  |  |  | < 50 |
| COc1cc(OC(F)(F)F)ccc1-c1ccc2nnc(C3CC(F)(F)C3)n2n1 [Compound 13] | > 70 |  |  |  |  | > 50 |
| COc1cc(OC(F)(F)F)ccc1-c1ccc2nnc(C3CC3(F)F)n2n1 (stereo not drawn) [Compound 15] | > 70 |  |  |  |  | > 50 |
| FC(F)(F)Oc1cccc(-c2ccc3nnc(C(F)(F)F)n3n2)c1 [Compound 17] | 30 to 70 |  |  |  |  | < 50 |
| COC(F)(F)c1nnc2ccc(-c3ccc(OC(F)(F)F)cc3)nn12 [Compound 41] | > 70 | < 1 |  |  |  |  |
| Cc1cc(OC(F)(F)F)ccc1-c1cn2c(C(F)F)nnc2cn1 [Compound 49] | > 70 | 15 to 30 | 7.6 | 486 |  |  |
| Fc1cc(OC(F)(F)F)ccc1-c1cn2c(C(F)F)nnc2cn1 [Compound 52] | 30 to 70 | 1 to 15 |  |  |  |  |
| FC1(F)CC(Oc2ccc(-c3ccc4nnc(C(F)(F)F)n4n3)cc2)C1 [Compound 59] | 30 to 70 | > 30 | 39.8 | 48 |  |  |
| FC(F)(F)Oc1ccc(-c2ccc3nnc(C4(F)CC4)n3n2)cc1 [Compound 61] | > 70 |  | 1.6 | 912 |  |  |
| Cc1cc(OC(F)(F)F)ccc1-c1cn2c(C(F)(F)F)nnc2cn1 [Compound 63] | > 70 | 15 to 30 | 8.8 | 612 |  |  |
| FC1(F)CC(Oc2ccc(-c3ccc4nnc(C(F)(F)F)n4n3)cn2)C1 [Compound 65] | > 70 | > 30 | 31 | 33 |  |  |
| Fc1cc(OC(F)(F)F)ccc1-c1cn2c(C(F)(F)F)nnc2cn1 [Compound 72] | < 30 | 1 to 15 |  |  |  |  |
| Cc1cc(C(F)(F)F)ccc1-c1cn2c(C(F)(F)F)nnc2cn1 [Compound 73] | 30 to 70 | 1 to 15 |  |  |  |  |
| CC(C)Oc1ccc(-c2cn3c(C(F)(F)F)nnc3cn2)cc1 [Compound 77] | > 70 | 1 to 15 |  |  |  |  |
| Fc1cc(-c2cn3c(C(F)(F)F)nnc3cn2)cnc1OCC(F)(F)F [Compound 78] | 30 to 70 | > 30 |  |  |  |  |
| Cc1cc(C2(C#N)CC2)ccc1-c1ccc2nnc(C(F)(F)F)n2n1 [Compound 105] |  | 15 to 30 |  |  | 30 to 70 |  |

Now from value to molecule, other results behind:

| inhibition at 1 µM [1, 5] [%] | IC50 [2] [µM] | clearance [3] [mL/min/kg] | half-life [3] [min] | SMILES | inhibition at 1 µM [1, 6] [%] | inhibition at 1 µM [4] [%] |
| --- | --- | --- | --- | --- | --- | --- |
| > 70 | > 30 | 15.9 | 390 | C[C@@H](Oc1ncc(-c2cn3c(C(F)(F)F)nnc3cn2)cc1F)C(F)(F)F (single isomer, unassigned) [Compound 124] |  |  |
| > 70 | > 30 |  |  | C[C@H](Oc1ncc(-c2cn3c(C(F)(F)F)nnc3cn2)cc1F)C(F)(F)F (single isomer, unassigned) [Compound 125] |  |  |
| > 70 | > 30 |  |  | C[C@@H](Oc1ncc(-c2ccc3nnc(C(F)(F)F)n3n2)cc1F)C(F)(F)F (single isomer, unassigned) [Compound 126] |  |  |
| > 70 | > 30 |  |  | C[C@H](Oc1ncc(-c2ccc3nnc(C(F)(F)F)n3n2)cc1F)C(F)(F)F (single isomer, unassigned) [Compound 127] |  |  |
| > 70 | > 30 |  |  | COC(F)(F)c1nnc2ccc(-c3cnc(OCC(F)(F)F)c(F)c3)nn12 [Compound 96] |  |  |
| > 70 | > 30 | 13.9 | 114 | Fc1cc(-c2ccc3nnc(C(F)(F)F)n3n2)cnc1OCC(F)(F)F [Compound 107] |  |  |
|  | 1 to 15 |  |  | FC(F)(F)Oc1ccc(-c2ccc3nnc(C(F)(F)F)n3n2)cc1 [Compound 108] |  |  |
| 30 to 70 | 1 to 15 |  |  | FC(F)(F)Oc1ccc(-c2cn3c(C4(F)CC4)nnc3cn2)cc1 [Compound 112] |  |  |
| > 70 | 1 to 15 |  |  | COCc1cc(C(F)(F)F)ccc1-c1cn2c(C(F)(F)F)nnc2cn1 [Compound 113] |  |  |
| > 70 | 15 to 30 |  |  | COCc1cc(-c2ccc3nnc(C(F)(F)F)n3n2)ccc1OC(F)(F)F [Compound 117] |  |  |
| > 70 | 1 to 15 |  |  | Cc1cc(OC(F)(F)F)ccc1-c1ccc2nnc(C(F)F)n2n1 [Compound 136] |  |  |
| 30 to 70 |  |  |  | Fc1cc(-c2cn3c(C(F)(F)F)nnc3cn2)ccc1OC1CC(F)(F)C1 [Compound 194] |  |  |
| < 30 |  |  |  | CC(C)OCc1ccc(-c2cn3c(C(F)(F)F)nnc3cn2)cc1 [Compound 195] |  |  |
| < 30 |  |  |  | OCc1ccc(-c2cn3c(C(F)(F)F)nnc3cn2)cc1 [Compound 196, [4-[3-(trifluoromethyl)-[1,2,4]triazolo[4,3-a]pyrazin-6-yl]phenyl]methanol] |  |  |
| 30 to 70 |  |  |  | FC(F)c1nnc2cnc(-c3ccc(COC(F)(F)F)cc3)cn12 [Compound 197] |  |  |
| > 70 |  |  |  | C[C@@H](Oc1ccc(-c2ccc3nnc(C(F)(F)F)n3n2)cn1)C(F)(F)F [Compound 199, 3-(trifluoromethyl)-6-[6-[(1R)-2,2,2-trifluoro-1-methyl-ethoxy]-3-pyridyl]-[1,2,4]triazolo[4,3-b]pyridazine] |  |  |
| > 70 |  |  |  | C[C@H](Oc1ccc(-c2ccc3nnc(C(F)(F)F)n3n2)cn1)C(F)(F)F [Compound 200, 3-(trifluoromethyl)-6-[6-[(1S)-2,2,2-trifluoro-1-methyl-ethoxy]-3-pyridyl]-[1,2,4]triazolo[4,3-b]pyridazine] |  |  |
